Test results taken from PubChem BioAssay (NCI).
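Grown in 96-well plates, cells were treated for 48 hours with each compound at five concentrations. Insufficient inhibition: endpoint recorded as highest concentration tested. At the TGI there is no net growth.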

Columns and labels:
Experiment in all cases: growth of human tumour cells (NCI), 48 h
TK-10 renal = tested on: TK-10 renal
SK-MEL-5 melanoma = tested on: SK-MEL-5 melanoma
U251 CNS = tested on: U251 CNS
SK-MEL-2 melanoma = tested on: SK-MEL-2 melanoma
786-0 renal = tested on: 786-0 renal
HOP-92 NSCLC = tested on: HOP-92 NSCLC
OVCAR-4 ovarian = tested on: OVCAR-4 ovarian
RXF 393 renal = tested on: RXF 393 renal
SF-268 CNS = tested on: SF-268 CNS
HL-60(TB) leukemia = tested on: HL-60(TB) leukemia
HCT-116 colon = tested on: HCT-116 colon
SR leukemia = tested on: SR leukemia
CCRF-CEM leukemia = tested on: CCRF-CEM leukemia
MOLT-4 leukemia = tested on: MOLT-4 leukemia
HOP-18 NSCLC = tested on: HOP-18 NSCLC
UACC-62 melanoma = tested on: UACC-62 melanoma
OVCAR-5 ovarian = tested on: OVCAR-5 ovarian
M19-MEL melanoma = tested on: M19-MEL melanoma
NCI-H460 lung = tested on: NCI-H460 lung
SF-539 CNS = tested on: SF-539 CNS
NCI-H226 lung = tested on: NCI-H226 lung
K-562 leukemia = tested on: K-562 leukemia
SNB-19 CNS = tested on: SNB-19 CNS
SW-620 colon = tested on: SW-620 colon
SF-295 CNS = tested on: SF-295 CNS
NCI-H23 lung = tested on: NCI-H23 lung
DLD-1 colon = tested on: DLD-1 colon
ACHN renal = tested on: ACHN renal
SK-MEL-28 melanoma = tested on: SK-MEL-28 melanoma
DMS 273 small cell lung = tested on: DMS 273 small cell lung
SK-OV-3 ovarian = tested on: SK-OV-3 ovarian
RPMI-8226 leukemia = tested on: RPMI-8226 leukemia
OVCAR-3 ovarian = tested on: OVCAR-3 ovarian
SN12C renal = tested on: SN12C renal
LXFL 529 NSCLC = tested on: LXFL 529 NSCLC
SNB-75 CNS = tested on: SNB-75 CNS
A549 NSCLC = tested on: A549 NSCLC
KM20L2 colon = tested on: KM20L2 colon
UO-31 renal = tested on: UO-31 renal
UACC-257 melanoma = tested on: UACC-257 melanoma
A498 renal = tested on: A498 renal
LOX IMVI melanoma = tested on: LOX IMVI melanoma
EKVX NSCLC = tested on: EKVX NSCLC
MALME-3M melanoma = tested on: MALME-3M melanoma
HOP-62 NSCLC = tested on: HOP-62 NSCLC
KM12 colon = tested on: KM12 colon
IGROV1 ovarian = tested on: IGROV1 ovarian
NCI-H522 lung = tested on: NCI-H522 lung
HT29 colon = tested on: HT29 colon
XF 498 CNS = tested on: XF 498 CNS
CAKI-1 renal = tested on: CAKI-1 renal
HCC-2998 colon = tested on: HCC-2998 colon
OVCAR-8 ovarian = tested on: OVCAR-8 ovarian
M14 melanoma = tested on: M14 melanoma
COLO 205 colon = tested on: COLO 205 colon
HCT-15 colon = tested on: HCT-15 colon
DMS 114 small cell lung = tested on: DMS 114 small cell lung
SNB-78 CNS = tested on: SNB-78 CNS

`COc1cc(/C=C2\[C@H]3c4c(c(OC)c(C)c(OC)c4OC)C[C@@H](C(=O)N2Cc2ccccc2)N3C(=O)OCC(C)C)c(OC)c(C)c1OC` was tested. Which TGI (TK-10 renal) did it give?
The TGI was greater than 100 µM.

And the TGI (SK-MEL-5 melanoma)?
The TGI was greater than 100 µM.

What about the TGI (U251 CNS) of the same compound?
The TGI was greater than 100 µM.

And the TGI (SK-MEL-2 melanoma)?
Its TGI is greater than 100 µM.

What about the TGI (786-0 renal) of the same compound?
The TGI was greater than 100 µM.

What about the TGI (HOP-92 NSCLC) of the same compound?
Its TGI is greater than 100 µM.

What about the TGI (OVCAR-4 ovarian) of the same compound?
The TGI was greater than 100 µM.

And the TGI (RXF 393 renal)?
Its TGI is greater than 100 µM.

And the TGI (SF-268 CNS)?
Its TGI is greater than 100 µM.

And the TGI (HL-60(TB) leukemia)?
The TGI was greater than 100 µM.

And the TGI (HCT-116 colon)?
The TGI was greater than 100 µM.

What about the TGI (SR leukemia) of the same compound?
The TGI was greater than 100 µM.

And the TGI (CCRF-CEM leukemia)?
Its TGI is greater than 100 µM.

What about the TGI (MOLT-4 leukemia) of the same compound?
The TGI was greater than 100 µM.

What about the TGI (HOP-18 NSCLC) of the same compound?
The TGI was greater than 100 µM.

What about the TGI (UACC-62 melanoma) of the same compound?
Its TGI is greater than 100 µM.

And the TGI (OVCAR-5 ovarian)?
Its TGI is greater than 100 µM.

What about the TGI (M19-MEL melanoma) of the same compound?
The TGI was greater than 100 µM.

What about the TGI (NCI-H460 lung) of the same compound?
The TGI was greater than 100 µM.

And the TGI (SF-539 CNS)?
Its TGI is greater than 100 µM.

What about the TGI (NCI-H226 lung) of the same compound?
The TGI was 40.9 µM.

What about the TGI (K-562 leukemia) of the same compound?
Its TGI is greater than 100 µM.

And the TGI (SNB-19 CNS)?
Its TGI is greater than 100 µM.

What about the TGI (SW-620 colon) of the same compound?
Its TGI is greater than 31.6 µM.

What about the TGI (SF-295 CNS) of the same compound?
Its TGI is greater than 100 µM.

And the TGI (NCI-H23 lung)?
Its TGI is greater than 100 µM.

And the TGI (DLD-1 colon)?
Its TGI is greater than 100 µM.

What about the TGI (ACHN renal) of the same compound?
Its TGI is greater than 100 µM.

What about the TGI (SK-MEL-28 melanoma) of the same compound?
The TGI was greater than 100 µM.

What about the TGI (DMS 273 small cell lung) of the same compound?
Its TGI is greater than 100 µM.

What about the TGI (SK-OV-3 ovarian) of the same compound?
The TGI was greater than 100 µM.

And the TGI (RPMI-8226 leukemia)?
The TGI was greater than 100 µM.

And the TGI (OVCAR-3 ovarian)?
The TGI was greater than 100 µM.

And the TGI (SN12C renal)?
Its TGI is greater than 100 µM.

And the TGI (LXFL 529 NSCLC)?
The TGI was greater than 100 µM.

And the TGI (SNB-75 CNS)?
The TGI was greater than 100 µM.

And the TGI (A549 NSCLC)?
Its TGI is greater than 100 µM.

And the TGI (KM20L2 colon)?
The TGI was greater than 100 µM.

What about the TGI (UO-31 renal) of the same compound?
Its TGI is greater than 100 µM.

What about the TGI (UACC-257 melanoma) of the same compound?
Its TGI is greater than 100 µM.

What about the TGI (A498 renal) of the same compound?
Its TGI is greater than 100 µM.

What about the TGI (LOX IMVI melanoma) of the same compound?
The TGI was greater than 100 µM.

And the TGI (EKVX NSCLC)?
The TGI was greater than 100 µM.

And the TGI (MALME-3M melanoma)?
Its TGI is greater than 100 µM.

What about the TGI (HOP-62 NSCLC) of the same compound?
The TGI was greater than 100 µM.

And the TGI (KM12 colon)?
The TGI was greater than 100 µM.

What about the TGI (IGROV1 ovarian) of the same compound?
The TGI was greater than 100 µM.

And the TGI (NCI-H522 lung)?
Its TGI is greater than 100 µM.

What about the TGI (HT29 colon) of the same compound?
The TGI was greater than 100 µM.

What about the TGI (XF 498 CNS) of the same compound?
Its TGI is greater than 100 µM.

What about the TGI (CAKI-1 renal) of the same compound?
The TGI was greater than 100 µM.

And the TGI (HCC-2998 colon)?
The TGI was greater than 100 µM.

And the TGI (OVCAR-8 ovarian)?
Its TGI is greater than 100 µM.

What about the TGI (M14 melanoma) of the same compound?
The TGI was greater than 100 µM.

And the TGI (COLO 205 colon)?
The TGI was greater than 100 µM.

And the TGI (HCT-15 colon)?
Its TGI is greater than 100 µM.

What does the source list for `C=C(C)C1CC=C(C)[C@](O)(C2(O)C[C@H](C(=C)C)CC=C2C)C1` (stereo partly specified)?
TGI (TK-10 renal): > 100 µM; TGI (U251 CNS): > 100 µM; TGI (HOP-92 NSCLC): > 100 µM; TGI (RXF 393 renal): > 100 µM; TGI (HL-60(TB) leukemia): > 100 µM; TGI (HCT-116 colon): > 100 µM; TGI (SR leukemia): > 100 µM; TGI (DMS 114 small cell lung): > 100 µM; TGI (CCRF-CEM leukemia): > 100 µM; TGI (MOLT-4 leukemia): > 100 µM; TGI (UACC-62 melanoma): > 100 µM; TGI (OVCAR-5 ovarian): > 100 µM; TGI (SNB-78 CNS): > 100 µM; TGI (M19-MEL melanoma): > 100 µM; TGI (NCI-H460 lung): > 100 µM; TGI (SNB-19 CNS): > 100 µM; TGI (SF-295 CNS): > 100 µM; TGI (NCI-H23 lung): > 100 µM; TGI (ACHN renal): > 100 µM; TGI (SK-MEL-28 melanoma): > 100 µM; TGI (DMS 273 small cell lung): > 100 µM; TGI (SK-OV-3 ovarian): > 100 µM; TGI (A549 NSCLC): > 100 µM; TGI (KM20L2 colon): > 100 µM; TGI (UO-31 renal): > 100 µM; TGI (UACC-257 melanoma): > 100 µM; TGI (A498 renal): > 100 µM; TGI (EKVX NSCLC): > 100 µM; TGI (HOP-62 NSCLC): > 100 µM; TGI (KM12 colon): > 100 µM; TGI (IGROV1 ovarian): > 100 µM; TGI (NCI-H522 lung): > 100 µM; TGI (HT29 colon): > 100 µM; TGI (OVCAR-8 ovarian): > 100 µM; TGI (M14 melanoma): > 100 µM
